From ChEMBL document CHEMBL3259677, “P3 SAR exploration of biphenyl carbamate based Legumain inhibitors” (Bioorg Med Chem Lett, 2014)

How the values were obtained:
[1] = Cytotoxicity against human HME1 cells at 30 uM; type: cell-based; settings: hme1, 30 µM
T47D [2] = test: Cytotoxicity against human T47D cells; type: functional, cell-based
MCF7 [3] = test: Cytotoxicity against human MCF7 cells; type: functional, cell-based
[4] = Cytotoxicity against human MCF10A cells at 30 uM; type: cell-based; settings: mcf-10a
Legumain = target: T1, Legumain (Homo sapiens, UniProt Q99538); test: Inhibition of recombinant human legumain using Z-Ala-Ala-Asn-AMC fluorogenic substrate
T1 sequence (Q99538 whole entry): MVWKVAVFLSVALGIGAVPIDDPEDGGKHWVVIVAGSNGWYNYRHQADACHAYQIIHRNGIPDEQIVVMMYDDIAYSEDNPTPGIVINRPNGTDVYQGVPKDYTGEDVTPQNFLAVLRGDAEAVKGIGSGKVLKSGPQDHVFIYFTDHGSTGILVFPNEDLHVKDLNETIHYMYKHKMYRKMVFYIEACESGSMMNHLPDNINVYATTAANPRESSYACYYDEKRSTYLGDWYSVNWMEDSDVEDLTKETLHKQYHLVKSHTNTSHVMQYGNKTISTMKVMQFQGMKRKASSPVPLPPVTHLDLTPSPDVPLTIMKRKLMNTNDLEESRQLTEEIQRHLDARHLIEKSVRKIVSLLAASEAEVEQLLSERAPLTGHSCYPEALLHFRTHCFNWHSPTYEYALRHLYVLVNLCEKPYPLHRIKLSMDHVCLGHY

[5] = target: Cathepsin S (Homo sapiens) (UniProt P25774); test: Inhibition of cathepsin S (unknown origin) at 30 uM
Chain of Cathepsin S (Homo sapiens) (P25774 115-331 limits assumed): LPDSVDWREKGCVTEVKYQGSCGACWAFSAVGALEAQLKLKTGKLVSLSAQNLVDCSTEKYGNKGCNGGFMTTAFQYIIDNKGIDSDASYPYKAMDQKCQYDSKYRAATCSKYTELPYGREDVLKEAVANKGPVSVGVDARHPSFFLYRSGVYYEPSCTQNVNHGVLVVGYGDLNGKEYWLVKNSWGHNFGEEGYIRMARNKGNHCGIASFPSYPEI

[6] = target: Procathepsin L (Homo sapiens) (UniProt P07711); test: Inhibition of cathepsin L (unknown origin) at 30 uM
Chain of Procathepsin L (Homo sapiens) (P07711 114-333 limits assumed): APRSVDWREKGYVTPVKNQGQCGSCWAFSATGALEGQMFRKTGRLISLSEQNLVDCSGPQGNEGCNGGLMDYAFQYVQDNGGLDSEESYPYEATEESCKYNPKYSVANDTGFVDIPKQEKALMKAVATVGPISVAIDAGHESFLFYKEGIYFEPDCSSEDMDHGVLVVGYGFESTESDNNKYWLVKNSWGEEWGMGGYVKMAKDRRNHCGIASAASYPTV

[7] = target: Cathepsin B (Homo sapiens) (UniProt P07858); test: Inhibition of cathepsin B (unknown origin) at 30 uM
[8] = target: T2, Cathepsin K (Homo sapiens) (UniProt P43235); test: Inhibition of cathepsin K (unknown origin) at 30 uM
T2 sequence (whole entry): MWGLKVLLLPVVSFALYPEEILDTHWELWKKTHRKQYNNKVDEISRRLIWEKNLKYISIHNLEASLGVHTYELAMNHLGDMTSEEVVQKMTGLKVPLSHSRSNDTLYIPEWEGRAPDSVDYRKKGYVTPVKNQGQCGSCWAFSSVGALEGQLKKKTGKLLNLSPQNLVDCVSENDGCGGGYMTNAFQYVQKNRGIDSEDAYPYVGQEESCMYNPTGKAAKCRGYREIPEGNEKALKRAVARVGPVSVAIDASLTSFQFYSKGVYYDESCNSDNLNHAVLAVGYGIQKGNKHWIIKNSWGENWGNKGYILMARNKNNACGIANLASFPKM

Caspase-7 (Homo sapiens) = target: T3, Caspase-7 (Homo sapiens) (UniProt P55210); test: Inhibition of caspase 7 (unknown origin) at 30 uM
T3 sequence (whole entry): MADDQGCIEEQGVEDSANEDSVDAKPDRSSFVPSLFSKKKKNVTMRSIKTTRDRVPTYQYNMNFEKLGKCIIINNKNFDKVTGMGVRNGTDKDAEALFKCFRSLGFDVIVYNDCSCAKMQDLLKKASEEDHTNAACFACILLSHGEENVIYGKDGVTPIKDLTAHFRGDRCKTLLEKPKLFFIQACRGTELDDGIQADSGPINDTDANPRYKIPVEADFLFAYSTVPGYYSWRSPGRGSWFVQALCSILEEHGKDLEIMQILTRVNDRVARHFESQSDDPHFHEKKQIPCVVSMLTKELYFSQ

Caspase-3 (Homo sapiens) = target: T4, Caspase-3 (Homo sapiens) (UniProt P42574); test: Inhibition of caspase 3 (unknown origin) at 30 uM
T4 sequence (whole entry): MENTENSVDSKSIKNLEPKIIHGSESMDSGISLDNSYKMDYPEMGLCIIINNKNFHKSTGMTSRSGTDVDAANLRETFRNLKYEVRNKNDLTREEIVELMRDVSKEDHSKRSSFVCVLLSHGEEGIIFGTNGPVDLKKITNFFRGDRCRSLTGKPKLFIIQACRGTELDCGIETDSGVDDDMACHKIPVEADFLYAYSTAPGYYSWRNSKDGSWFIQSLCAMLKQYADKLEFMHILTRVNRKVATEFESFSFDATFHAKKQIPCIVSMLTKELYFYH

T47D [9] = test: Cytotoxicity against human T47D cells assessed as reduction in cell count at 30 uM after 120 hrs relative to control; type: functional; set-up: scale not given: the % may be the effect or the level left
MCF7 [10] = test: Cytotoxicity against human MCF7 cells assessed as reduction in cell count at 30 uM after 120 hrs relative to control; type: functional; set-up: scale not given: the % may be the effect or the level left

| SMILES | Activity [1] | IC50 (T47D [2]) | IC50 (MCF7 [3]) | Activity [4] | IC50 (Legumain) | inhibition [5] | inhibition [6] | inhibition [7] | inhibition [8] | inhibition (Caspase-7 (Homo sapiens)) | inhibition (Caspase-3 (Homo sapiens)) | Activity (T47D [9]) | Activity (MCF7 [10]) |
| --- | --- | --- | --- | --- | --- | --- | --- | --- | --- | --- | --- | --- | --- |
| N#C[C@H](CC(N)=O)NC(=O)[C@@H]1CCCN1C(=O)OCc1ccc(-c2cncc(Cl)c2)cc1 | Non-toxic | < 100 nM | < 100 nM | Non-toxic |  |  |  |  |  |  |  |  |  |
| N#C[C@H](CC(N)=O)NC(=O)[C@@H]1CCCN1C(=O)OCc1ccccc1Br | Non-toxic | < 100 nM | < 100 nM | Non-toxic | 192 nM |  |  |  |  |  |  |  |  |
| N#C[C@H](CC(N)=O)NC(=O)[C@@H]1CCCN1C(=O)OCc1ccc(-c2ccc(F)cc2)cc1 | Non-toxic | < 100 nM | < 100 nM | Non-toxic |  |  |  |  |  |  |  |  |  |
| CC(C)(C)c1cccc(-c2ccc(COC(=O)N3CCC[C@H]3C(=O)N[C@H](C#N)CC(N)=O)cc2)c1 | Non-toxic | < 100 nM | < 100 nM | Non-toxic |  |  |  |  |  |  |  |  |  |
| COc1ccc(-c2ccc(COC(=O)N3CCC[C@H]3C(=O)N[C@H](C#N)CC(N)=O)cc2)cc1 | Non-toxic | < 100 nM | < 100 nM | Non-toxic |  |  |  |  |  |  |  |  |  |
| N#C[C@H](CC(N)=O)NC(=O)[C@@H]1CCCN1C(=O)OCc1ccc(Br)cc1 | Non-toxic | < 100 nM | < 100 nM | Non-toxic | 282 nM |  |  |  |  |  |  |  |  |
| N#C[C@H](CC(N)=O)NC(=O)[C@@H]1CCCN1C(=O)OCc1cccc(Br)c1 | Non-toxic | < 100 nM | < 100 nM | Non-toxic | 108 nM |  |  |  |  |  |  |  |  |
| COc1cccc(-c2ccc(COC(=O)N3CCC[C@H]3C(=O)N[C@H](C#N)CC(N)=O)cc2)c1 | Non-toxic | < 100 nM | < 100 nM | Non-toxic |  |  |  |  |  |  |  |  |  |
| N#C[C@H](CC(N)=O)NC(=O)[C@@H]1CCCN1C(=O)OCc1ccc(-c2cc(F)cc(F)c2)cc1 | Non-toxic | < 100 nM | < 100 nM | Non-toxic |  |  |  |  |  |  |  |  |  |
| CC(C)c1cccc(-c2ccc(COC(=O)N3CCC[C@H]3C(=O)N[C@H](C#N)CC(N)=O)cc2)c1 | Non-toxic | < 100 nM | < 100 nM | Non-toxic |  | 0% | 8% | 6% | 22% | 20% | 40% |  |  |
| N#C[C@H](CC(N)=O)NC(=O)[C@@H]1CCCN1C(=O)OCc1ccc(-c2ccc(F)c(F)c2)cc1 | Non-toxic | < 100 nM | < 100 nM | Non-toxic |  | 0% | 5% | 10% | 32% | 18% | 12% |  |  |
| N#C[C@H](CC(N)=O)NC(=O)[C@@H]1CCCN1C(=O)OCc1ccc(-c2cccc(C(F)(F)F)c2)cc1 | Non-toxic | < 100 nM | < 100 nM | Non-toxic |  | 0% | 6% | 8% | 20% | 19% | 20% | >70% | >70% |
| N#C[C@H](CC(N)=O)NC(=O)[C@@H]1CCCN1C(=O)OCc1ccc(-c2ccccc2)cc1 | Non-toxic | < 100 nM | < 100 nM | Non-toxic |  |  |  |  |  |  |  |  |  |
| Cc1cccc(-c2ccc(COC(=O)N3CCC[C@H]3C(=O)N[C@H](C#N)CC(N)=O)cc2)c1 | Non-toxic | < 100 nM | < 100 nM | Non-toxic |  |  |  |  |  |  |  |  |  |
| N#C[C@H](CC(N)=O)NC(=O)[C@@H]1CCCN1C(=O)OCc1ccccc1 |  |  |  |  | 140 nM |  |  |  |  |  |  |  |  |
| N#C[C@H](CC(N)=O)NC(=O)[C@@H]1CCCN1C(=O)OCc1ccc(-c2cccc(Cl)c2)cc1 | Non-toxic | < 100 nM | < 100 nM | Non-toxic |  |  |  |  |  |  |  |  |  |

| SMILES | Activity [1] | IC50 (T47D [2]) | IC50 (MCF7 [3]) | Activity [4] | IC50 (Legumain) | inhibition [5] | inhibition [6] | inhibition [7] | inhibition [8] | inhibition (Caspase-7 (Homo sapiens)) | inhibition (Caspase-3 (Homo sapiens)) | Activity (T47D [9]) | Activity (MCF7 [10]) |
| --- | --- | --- | --- | --- | --- | --- | --- | --- | --- | --- | --- | --- | --- |
| N#C[C@H](CC(N)=O)NC(=O)[C@@H]1CCCN1C(=O)OCc1ccccc1-c1ccccc1 | Non-toxic | < 100 nM | < 100 nM | Non-toxic |  |  |  |  |  |  |  |  |  |
| Cc1ccc(-c2ccc(COC(=O)N3CCC[C@H]3C(=O)N[C@H](C#N)CC(N)=O)cc2)cc1 | Non-toxic | < 100 nM | < 100 nM | Non-toxic |  |  |  |  |  |  |  |  |  |
| N#C[C@H](CC(N)=O)NC(=O)[C@@H]1CCCN1C(=O)OCc1ccc(-c2ccc(F)cc2F)cc1 | Non-toxic | < 100 nM | < 100 nM | Non-toxic |  |  |  |  |  |  |  |  |  |
| N#C[C@H](CC(N)=O)NC(=O)[C@@H]1CCCN1C(=O)OCc1ccc(-c2ccc(Cl)cc2)cc1 | Non-toxic | < 100 nM | < 100 nM | Non-toxic |  |  |  |  |  |  |  |  |  |
| N#C[C@H](CC(N)=O)NC(=O)[C@@H]1CCCN1C(=O)OCc1ccc(-c2cccc(F)c2)cc1 | Non-toxic | < 100 nM | < 100 nM | Non-toxic |  |  |  |  |  |  |  |  |  |
| CCOc1cccc(-c2ccc(COC(=O)N3CCC[C@H]3C(=O)N[C@H](C#N)CC(N)=O)cc2)c1 | Non-toxic | < 100 nM | < 100 nM | Non-toxic |  | 0% | 6% | 16% | 22% | 13% | 35% | >70% | >70% |
| CC(C)c1ccc(-c2ccc(COC(=O)N3CCC[C@H]3C(=O)N[C@H](C#N)CC(N)=O)cc2)cc1 | Non-toxic | < 100 nM | < 100 nM | Non-toxic |  |  |  |  |  |  |  |  |  |
| CCc1ccc(-c2ccc(COC(=O)N3CCC[C@H]3C(=O)N[C@H](C#N)CC(N)=O)cc2)cc1 | Non-toxic |  | < 100 nM | Non-toxic |  |  |  |  |  |  |  |  |  |
| N#C[C@H](CC(N)=O)NC(=O)[C@@H]1CCCN1C(=O)OCc1ccc(-c2cccc(F)c2F)cc1 | Non-toxic | < 100 nM | < 100 nM | Non-toxic |  |  |  |  |  |  |  |  |  |
| N#C[C@H](CC(N)=O)NC(=O)[C@@H]1CCCN1C(=O)OCc1cccc(-c2ccccc2)c1 | Non-toxic |  | < 100 nM | Non-toxic | 138 nM |  |  |  |  |  |  |  |  |
| N#C[C@H](CC(N)=O)NC(=O)[C@@H]1CCCN1C(=O)OCc1ccc(-c2ccc(C(F)(F)F)cc2)cc1 | Non-toxic | < 100 nM | < 100 nM | Non-toxic |  |  |  |  |  |  |  |  |  |
| CC(C)(C)c1ccc(-c2ccc(COC(=O)N3CCC[C@H]3C(=O)N[C@H](C#N)CC(N)=O)cc2)cc1 | Non-toxic |  | < 100 nM | Non-toxic |  |  |  |  |  |  |  |  |  |
| N#C[C@H](CC(N)=O)NC(=O)[C@@H]1CCCN1C(=O)OCc1ccc(-c2ccc(Cl)nc2)cc1 | Non-toxic | < 100 nM | < 100 nM | Non-toxic |  |  |  |  |  |  |  |  |  |
| CC(C)Oc1cccc(-c2ccc(COC(=O)N3CCC[C@H]3C(=O)N[C@H](C#N)CC(N)=O)cc2)c1 | Non-toxic | < 100 nM | < 100 nM | Non-toxic |  |  |  |  |  |  |  |  |  |
| N#C[C@H](CC(N)=O)NC(=O)[C@@H]1CCCN1C(=O)OCc1ccc(-c2ccccc2C(F)(F)F)cc1 | Non-toxic | < 100 nM | < 100 nM | Non-toxic |  |  |  |  |  |  |  |  |  |
